Holding throughout (assay): Bliss excess, mean over the matrix (fraction); higher = more synergy
Experiment [1] concerns BxPC-3 (Pancreatic Carcinoma). The essentials:
(§1)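 Cell lines in DMEM/F12 or RPMI with 10% FBS were plated in 1536-well plates, held 24 hours at 37°C, 5% CO2, then given two-drug dose matrices for 72 hours (DMSO typically 0.2%). Viability was read by CellTiter-Glo 2.0 luminescence and scaled as inhibition from 0 (vehicle wells) to 1 (blank wells). Combination Emax is the second-highest inhibition in the matrix; Bliss excess is observed combination effect minus expected EA + EB − EA·EB, EA and EB being single-agent effects.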

For experiment [2], the system named is COR-L88 (Small Cell Lung Carcinoma). The essentials: as §1
For experiment [3], the system named is DBTRG-05MG (Glioblastoma). An outline of the steps:
as §1

Experiment [4] has as its system GAK (Melanoma). An outline of the steps: as §1
Experiment [5] has as its system HT-1080 (Other Solid Carcinomas). An outline of the steps: as §1
The test system of experiment [6] is IST-MEL1 (Melanoma). The essentials:
as §1

The subject of experiment [7] is LCLC-103H (Non-Small Cell Lung Carcinoma). An outline of the steps: as §1
The test system of experiment [8] is MONO-MAC-6 (Acute Myeloid Leukemia). An outline of the steps:
as §1

Experiment [9] deals with NAMALWA (Burkitt's Lymphoma). An outline of the steps: as §1
The test system of experiment [10] is NB1 (Neuroblastoma). The essentials: as §1
The subject of experiment [11] is NCI-H226 (Mesothelioma). An outline of the steps: as §1
Experiment [12] relates to NCI-H2373 (Mesothelioma). An outline of the steps:
as §1

Experiment [13] has as its system NCI-H596 (Other Solid Carcinomas). The essentials: as §1
The test system of experiment [14] is P32-ISH (Burkitt's Lymphoma). The essentials:
as §1

Experiment [15] deals with PL4 (Pancreatic Carcinoma). The essentials: as §1
Experiment [16] deals with SCC-4 (Oral Cavity Carcinoma). The essentials:
as §1

Experiment [17] relates to SNU-407 (Colorectal Carcinoma). An outline of the steps:
as §1

Experiment [18] has as its system T47D (Breast Carcinoma). The essentials:
as §1

In experiment [19] the test system is WM35 (Melanoma). The essentials: as §1
Experiment [20] concerns ZR-75-30 (Breast Carcinoma). The essentials:
as §1

`CC1(C)CCC(CN2CCN(c3ccc(C(=O)NS(=O)(=O)c4ccc(NCC5CCOCC5)c([N+](=O)[O-])c4)c(Oc4cnc5[nH]ccc5c4)c3)CC2)=C(c2ccc(Cl)cc2)C1` [Venetoclax] + Cn1cnc2c(F)c(Nc3ccc(Br)cc3Cl)c(C(=O)NOCCO)cc21 [Selumetinib] (first compound max 1 µM, 7x7, partner max 3 µM): the Bliss excess is 0.0009 in experiment [1]; 0.0341 in [2]; 0.0064 in experiment [3]; 0.0238 in [4]; -0.0351 in experiment [5]; -0.0654 in experiment [6]. The Bliss excess in [7] was -0.0542; in experiment [8] it was -0.0192; in [9], 0.0019; in experiment [10], -0.0466; in experiment [11], -0.0799; in experiment [12], -0.0468. The Bliss excess in experiment [13] is -0.0764; in [14], 0.0152; in experiment [15] it was -0.0236; in [16] it was -0.0931; in experiment [17], -0.0275; in [18], -0.0624. In addition, the Bliss excess in [19] is 0.0543; in [20], -0.034.

As to `CC(=O)Nc1cccc(-n2c(=O)n(C3CC3)c(=O)c3c(Nc4ccc(I)cc4F)n(C)c(=O)c(C)c32)c1` [Trametinib] + Cc1nc(-c2cn3c(n2)-c2ccc(-c4cnn(C(C)(C)C(N)=O)c4)cc2OCC3)n(C(C)C)n1 [Taselisib] (first compound max 1 µM, 7x7, partner max 10 µM), the Bliss excess was found to be 0.354 in experiment [1]; 0.0085 in experiment [2]; 0.0957 in [3]; 0.0805 in experiment [4]; 0.0288 in [5]; 0.122 in experiment [6]. For the same compound, the Bliss excess is 0.0657 in [7]; 0.244 in experiment [8]; 0.0825 in experiment [9]; 0.156 in experiment [10]; 0.003 in [11]; 0.0818 in experiment [12]. Also, the Bliss excess in experiment [13] came out at 0.0725; in experiment [14], 0.0479; in experiment [15], 0.0796; in [16] it was 0.147; in experiment [17] it was 0.0236; in experiment [18], 0.0046. For the same compound, the Bliss excess in experiment [19] came out at 0.124; in experiment [20], 0.0155.

As for `COc1cccc(OCCCN)c1-c1cc(Nc2cnc(C#N)cn2)n[nH]1` [Prexasertib] + C[C@@H]1COCCN1C2=NC(=NC(=C2)C3(CC3)[S@](=N)(=O)C)C4=C5C=CNC5=NC=C4 [AZD6738] (first compound max 1 µM, 7x7, partner max 10 µM), the Bliss excess was -0.0535 in experiment [1]; -0.0483 in experiment [2]; -0.0378 in [3]; -0.0092 in [4]; -0.0089 in experiment [5]; -0.0131 in [6]. In addition, the Bliss excess in experiment [7] is 0.0242; in experiment [8], 0.0104; in experiment [9], -0.0052; in experiment [10], 0.0001; in experiment [11], 0.01; in experiment [12] it was -0.0628. The Bliss excess in [13] is 0.0159; in experiment [14], -0.0127; in experiment [15] it was -0.0024; in experiment [16] it was -0.0323; in [17], -0.0094; in [18], 0.0003. Further, the results for the Bliss excess in experiment [19] and in experiment [20] were -0.026 and -0.0102, respectively.

Consider `NC1(C(=O)N[C@@H](CCO)c2ccc(Cl)cc2)CCN(c2ncnc3[nH]ccc23)CC1` [Capivasertib] + CC(C)n1c(=O)n(C)c2cnc3cc(F)c(-c4ccc(OCCCN5CCCCC5)nc4)cc3c21 [AZD1390] (first compound max 10 µM, 7x7, partner max 0.3 µM), for which the Bliss excess is -0.0361 in experiment [1]; -0.0746 in experiment [2]; -0.0418 in experiment [3]; -0.0397 in experiment [4]; -0.0504 in experiment [5]; -0.0392 in experiment [6]. For the same compound, the Bliss excess in experiment [7] is -0.0712; in [8], -0.0262; in experiment [9], 0.0005; in [10] it was -0.0688; in experiment [11] it was -0.0484; in [12], -0.051. In addition, the Bliss excess is -0.143 in experiment [13]; 0.0131 in experiment [14]; -0.0225 in experiment [15]; -0.045 in experiment [16]; -0.0261 in experiment [17]; -0.0476 in [18]. In addition, the Bliss excess was -0.0773 in experiment [19] and -0.0471 in experiment [20].

Take `Cc1c2c(nn1C)CSCc1cc(n(C)n1)CSc1cc(c3ccccc3c1)OCCCc1c(C(=O)O)n(C)c3c-2c(Cl)ccc13` [AZD5991] + Cc1cc2ncnn2cc1Nc1ncc2c(n1)n(C1CCOCC1)c(=O)n2C [AZD7648] (first compound max 1 µM, 7x7, partner max 10 µM): the Bliss excess in experiment [1] was -0.0007; in experiment [2], -0.0006; in experiment [3] it was -0.0436; in experiment [4] it was -0.021; in experiment [5], -0.0256; in [6], -0.0048. The Bliss excess was -0.0543 in experiment [7]; 0.016 in experiment [8]; -0.0286 in experiment [9]; -0.0197 in [10]; -0.061 in experiment [11]; -0.015 in experiment [12]. For the same compound, the Bliss excess is 0.0056 in experiment [13]; 0.0465 in experiment [14]; -0.0395 in [15]; -0.0269 in [16]; -0.0369 in experiment [17]; -0.0159 in experiment [18]. Also, the Bliss excess was -0.0073 in [19] and -0.0134 in experiment [20].

Values taken from the supplement of paper PMC11061612.
